Data published in patent US8784774B2, “Labeled molecular imaging agents and methods of use” (General Electric Company, priority 2011, dated 2014).
pIC50: −log10 of the molar value. Read-outs that look alike come from different tables or passages of the source. Values belong to the compound of their own block, whether it stands above or below them.

Assays:
[1] = molecular target: T1, cystine/glutamate transporter (Mus musculus, UniProt Q9WTR6); assay: 3H-L-Asu uptake in EL4 cells with or without DEM and with transporter inhibitors (Example 1); format: cell-based; parameters: endogenous in cells; host or cells: EL4 mouse lymphoma cells, with or without diethylmaleate (DEM) treatment
T1 sequence (Q9WTR6 1-502): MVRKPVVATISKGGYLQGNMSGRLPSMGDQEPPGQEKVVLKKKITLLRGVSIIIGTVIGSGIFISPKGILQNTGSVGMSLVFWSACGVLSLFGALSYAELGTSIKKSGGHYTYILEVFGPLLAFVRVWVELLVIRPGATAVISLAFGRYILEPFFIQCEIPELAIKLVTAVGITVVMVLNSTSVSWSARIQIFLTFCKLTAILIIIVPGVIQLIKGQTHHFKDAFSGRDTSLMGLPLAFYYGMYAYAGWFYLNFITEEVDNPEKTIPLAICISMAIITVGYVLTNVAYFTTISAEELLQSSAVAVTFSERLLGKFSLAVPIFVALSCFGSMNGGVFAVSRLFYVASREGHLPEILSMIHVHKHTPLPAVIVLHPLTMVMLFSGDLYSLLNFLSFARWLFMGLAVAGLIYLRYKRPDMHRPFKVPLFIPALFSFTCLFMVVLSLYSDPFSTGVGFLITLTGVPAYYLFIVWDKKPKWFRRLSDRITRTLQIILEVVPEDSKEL
T1 sequence (P10852 1-526 partner): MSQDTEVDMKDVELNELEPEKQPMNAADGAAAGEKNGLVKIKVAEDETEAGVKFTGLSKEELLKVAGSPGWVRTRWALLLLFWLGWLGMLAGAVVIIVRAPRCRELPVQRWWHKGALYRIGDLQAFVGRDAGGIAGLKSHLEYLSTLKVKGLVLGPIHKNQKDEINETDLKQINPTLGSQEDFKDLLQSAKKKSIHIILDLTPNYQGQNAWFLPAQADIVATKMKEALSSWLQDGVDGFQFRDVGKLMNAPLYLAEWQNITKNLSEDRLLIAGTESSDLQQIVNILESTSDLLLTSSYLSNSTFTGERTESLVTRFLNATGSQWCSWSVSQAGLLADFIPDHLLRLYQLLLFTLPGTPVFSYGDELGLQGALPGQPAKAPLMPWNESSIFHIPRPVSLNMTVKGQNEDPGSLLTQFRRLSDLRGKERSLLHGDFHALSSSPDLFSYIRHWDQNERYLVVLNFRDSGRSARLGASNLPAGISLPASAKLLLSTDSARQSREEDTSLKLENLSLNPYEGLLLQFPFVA
Method: Mouse lymphoma cells (EL4) were cultured with or without 100 μM diethylmaleate for 24 hours, washed in phosphate buffered saline (PBS) divided into aliquots of 5×10^6 cells and incubated with [^3H]-L-2-aminosuberic acid (^3H-L-Asu) without or with inhibitors of the cystine/glutamate transporter for 15 minutes. Cells were then washed 3 times and collected in a 1 ml volume of 1M HCl and transferred to a scintillation vial. 12 ml of Ready Gel scintillation fluid was added to each sample and cell uptake was determined by scintillation counting using a Perkin Elmer Tri-Carb Liquid Scintillation Analyzer.

[2] = molecular target: T1, cystine/glutamate transporter; assay: Screen of unlabeled compounds for competition with 3H-L-ASU uptake (Example 3); format: cell-based; parameters: endogenous in cells; details: read-out: inhibition of ^3H-L-ASU uptake
[3] = molecular target: T1, cystine/glutamate transporter; assay: cell-based
[4] = molecular target: T1, cystine/glutamate transporter; details: read-out: IC50 for inhibition of ^3H-L-GLU uptake; DEM treated EL4 cells; separate set of experiments
[5] = molecular target: T1, cystine/glutamate transporter; assay: Uptake of labeled compounds in DEM treated EL4 cells with or without SSZ (Example 2); format: cell-based; parameters: endogenous in cells; host or cells: EL4 mouse lymphoma cells, with or without diethylmaleate (DEM) treatment; details: for inhibition of uptake by SSZ: 500 μM SSZ; for Uptake relative to ^3H-GLU: 0.33 μCi; for SSZ inhibition (%): uptake of the labeled compound with 500 μM SSZ
Method: 5×10^6 DEM treated EL4 cells were incubated with 0.33 μCi of either [^3H]-L-ASU, [^3H]-L-GLU or [^35S]-L-Cystine (with or without 500 μM SSZ) for 15 minutes before being washed three times in PBS and uptake was analyzed via liquid scintillation counting.

[6] = tested on: EL4 xenograft tumor tissue slices; assay: Ex vivo uptake in EL4 xenograft tumor tissue slices (Example 5); format: cell-based, mouse; details: 0.33 μCi, 30 minutes, agents matched for specific activity and radioactive dose
Method: We compared uptake of ^3H-ASU in tumor tissue ex vivo with uptake of ^3H-FDG, a tritiated form of the common ^18F-FDG imaging agent. the two agents were matched for specific activity and radioactive dose. 0.33 μCi of agent was incubated with equivalent aliquots of EL4 xenograft tumor tissue slices for 30 minutes (tumors processed with three passes on a McIlwain Tissue chopper, at 500 um steps, and washed with fresh buffer). Slices where washed three times, lysed with 1M HCl and evaluated by scintillation counting.

[7] = unlabeled competitor at high concentration (2.5 mM)

Structure (SMILES): N[C@@H](CCCCCC(=O)O)C(=O)O [L-ASU, L-aminosuberic acid]
inhibition at 2500 µM ([1]; EL4, read-out: inhibition of ^3H-L-Asu uptake): > 95% | inhibition at 2500 µM [2]: > 90% | pIC50 [3]: 5.54

Structure (SMILES): N[C@@H](CCC(=O)O)C(=O)O [L-GLU, L-glutamate]
pIC50 [4]: 5.33

inhibition at 2500 µM [2, 7]: < 45%
Structure (SMILES): N[C@H](CCC[C@H](N)C(=O)O)C(=O)O [DiAPA, diaminopimelic acid]

Structure (SMILES): N[C@@H](CSSC[C@H](N)C(=O)O)C(=O)O [^35S-Cystine, [^35S]-L-Cystine]
inhibition of uptake by SSZ [5]: approximately ⅔ | Uptake relative to ^3H-GLU ([5]; 15 minutes): 168.8 (±2.0) | SSZ inhibition (%) ([5]; 15 minutes): 68.7 (±1.76) %

inhibition at 2500 µM [2, 7]: > 90% | pIC50 [3]: 4.62
Structure (SMILES): N[C@@H](CCCC(=O)O)C(=O)O [L-AAA, L-aminoadipic acid]

inhibition at 500 µM ([1]; inhibitor 500 μM, EL4 cells, 15 minutes): > 95%
Structure (SMILES): O=C(O)c1cc(/N=N/c2ccc(S(=O)(=O)Nc3ccccn3)cc2)ccc1O [sulfasalazine]

inhibition of uptake by SSZ [5]: almost completely inhibited | Uptake relative to ^3H-GLU ([5]; 15 minutes): 447.0 (±22.1) | uptake efficiency relative to L-GLU uptake ([5]; 15 minutes): approximately 4.5 times | SSZ inhibition (%) ([5]; 15 minutes): 95.8 (±0.17) % | ^3H-L-Asu uptake in cells exposed to oxidative stress ([1]; EL4 cells, 100 μM diethylmaleate (DEM) 24 hours vs without, 15 minutes incubation): increased
Structure (SMILES): [3H]C(CCC(=O)O)C([3H])C[C@H](N)C(=O)O (stereo partly drawn) [^3H-Asu, (S)-2-amino 4,5-^3H-suberic acid]
more uptake than ^3H-FDG [6]: 70%

Structure (SMILES): N[C@H](CCCCCC(=O)O)C(=O)O [D-ASU]
inhibition at 2500 µM [2]: > 90% | pIC50 [3]: 4.44

inhibition at 2500 µM [2, 7]: < 45%
Structure (SMILES): O=C(O)CCCCCCC(=O)O [suberic acid]

inhibition at 2500 µM [2, 7]: < 45%
Structure (SMILES): N[C@@H](CCC(=O)NCC(=O)O)C(=O)O [γ-glutamyl-glycine]
